Source: US20250186496A1, “METHODS AND COMPOSITIONS FOR CONTROLLING T CELL ACTIVATION” (The General Hospital Corporation, priority 2022, published 2025)

Tests used:
mbdIL7-Luc = settings: mice
Protocol: The mdbIL7 was tagged with luciferase (mdbTL7-Luc), so mdbTL7 expression could be monitored in vivo. Mice were injected with Jurkat cells that were transduced with mdbIL7-Luc. The Jurkat mdbTL7-Luc cells were allowed to engraft for 25 days and then pomalidomide was administered to the mice (FIG. 14A).

IL-7 = assay: Cytokine expression and soluble IL-7 in supernatant of CAR T cells cocultured with CD19+ Nalm6; assay type: cell-based
Description: FIGS. 13A-13C show mbdIL7 is cleaved from the T cell surface in a state-dependent manner.

STAT5 = STAT5 signaling over increasing concentrations of lenalidomide; assay type: cell-based, human; settings: increasing lenalidomide concentration; CAR19 cells with mbdIL7
[1] = test system: T cells expressing a CD19 CAR; assay: Expansion/activation of CAR T cells in production with or without exogenous IL-2 (population doublings); assay type: cell-based, human; settings: CAR19 mbdIL7 without exogenous IL-2 vs CAR19 cells induced with IL-2
Protocol: CAR19 T cells and mbdTL7 CAR19 T cells were cultured with and without exogenous IL-2. […] This was shown for two different types of cancer cells, Nalm6 and K562.

Molecule: Nc1cccc2c1C(=O)N(C1CCC(=O)NC1=O)C2=O (stereo not drawn) [pomalidomide]
- decrease of mdbIL7-luc expression (mbdIL7-Luc; 6 hours after administration of pomalidomide): more than 10 fold
- mdbIL7-luc expression (mbdIL7-Luc; by 24 hours after pomalidomide administration): returned to levels similar to pre-administration

Molecule: Nc1cccc2c1CN(C1CCC(=O)NC1=O)C2=O (stereo not drawn) [lenalidomide]
- effect of lenalidomide on IL-7 cleavage without antigen exposure (IL-7; CAR19 mbdIL7 not experiencing antigen exposure): no appreciable effects
- control of cleavage of IL-7 from the T cell surface by lenalidomide (IL-7; CAR19 mbdIL7 with antigen exposure): effectively controlled by lenalidomide in a dose-dependent manner
- pSTAT5 expression (STAT5): a decrease in pSTAT5 expression

B1: mbdIL7: T cell factor: human IL-7, a CD80 hinge and transmembrane domain, and a lenalidomide-responsive zinc finger degron domain (protein)
chain: MLLLVTSLLLCELPHPAFLLIPEQKLISEEDLDCDIEGKDGKQYESVLMVSIDQLLDSMKEIGSNCLNNEFNFFKRHICDANKEGMFLFRAARKLRQFLKMNSTGDFDLHLLKVSEGTTILLNCTGQVKGRKPAALGEAQPTKSLEENKSLKEQKKLNDLCFLKRLLQEIKTCWNKILMGTKEHWNTTKQEHFPDNLLPSWAITLISVNGIFVICCLTYCFAPRCRERRRNERLRRESVRPVGSGSGSGSGGFNVLMVHKRSHTGERPLQCEICGFTCRQKGNLLRHIKLHTGEKPFKCHLCNYACQRRDAL
- CAR19 cell doubling time / expansion rate [1]: not significantly affected
